Assay results as given in PubChem BioAssay (NCI).
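Interpolation was linear, between the two tested concentrations surrounding the appropriate level; five concentrations were tested over 48 hours in 96-well plates. Abbreviation: GI50, concentration required for 50% inhibition of growth. The concentration for full growth arrest is given as TGI.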

Key:
Assay in all cases: growth of human tumour cells (NCI), 48 h
OVCAR-3 ovarian = system: OVCAR-3 ovarian
SK-MEL-28 melanoma = system: SK-MEL-28 melanoma
SNB-75 CNS = system: SNB-75 CNS
NCI-H460 lung = system: NCI-H460 lung
BT-549 breast = system: BT-549 breast
SNB-19 CNS = system: SNB-19 CNS
HS 578T breast = system: HS 578T breast
CCRF-CEM leukemia = system: CCRF-CEM leukemia
SNB-78 CNS = system: SNB-78 CNS
LXFL 529 NSCLC = system: LXFL 529 NSCLC

SMILES	GI50 (OVCAR-3 ovarian) [µM]	TGI (OVCAR-3 ovarian) [µM]	GI50 (SK-MEL-28 melanoma) [µM]	TGI (SK-MEL-28 melanoma) [µM]	GI50 (SNB-75 CNS) [µM]	TGI (SNB-75 CNS) [µM]	GI50 (NCI-H460 lung) [µM]	TGI (NCI-H460 lung) [µM]	GI50 (BT-549 breast) [µM]	TGI (BT-549 breast) [µM]	GI50 (SNB-19 CNS) [µM]	TGI (SNB-19 CNS) [µM]	GI50 (HS 578T breast) [µM]	TGI (HS 578T breast) [µM]	GI50 (CCRF-CEM leukemia) [µM]	TGI (CCRF-CEM leukemia) [µM]	TGI (SNB-78 CNS) [µM]	TGI (LXFL 529 NSCLC) [µM]
CCN(CC)CCCC(C)Nc1c(-c2ccccc2)cnc2cc(Cl)ccc12 (centres undefined)	12.5	26.5	1.82	3.55	13.7	45.3	6.99	19.8	8.76	22.3	16.6	57.7	6.82	24.7	14.4	> 100		
COc1cc(/C=C/[N+](=O)[O-])cc(OC)c1OC	2.81	6.63	2.23	4.9	2.4	6.11	3.36	12.4	2.19	4.57	5.64	18.4	3.46	28.1	3.35	15.4		
Cc1cc(NC(=O)c2cnc(N3CCN(CCOCCOCCOCCOCCC(=O)N[C@H](C(=O)N4C[C@H](O)C[C@H]4C(=O)N[C@@H](C)c4ccc(-c5scnc5C)cc4)C(C)(C)C)CC3)cn2)c2ncccc2c1	2.13	4.45	2.54	6.7	2.1	15	3.37	11	1.83	3.69	3.59	14.7	2.59	9.17	3.37	> 100		
CN(c1ccc(C#N)c(Cl)c1)C1CCC(NC(=O)c2ccc(N3CCN(C4CN(c5ccc6c(c5)C(=O)N(C5CCC(=O)NC5=O)C6=O)C4)CC3)cc2)CC1 (centres undefined)	> 100	> 100	> 100	> 100	> 100	> 100	> 100	> 100	98.6	> 100	> 100	> 100	> 100	> 100	> 100	> 100		
Cc1ccc(Sc2oc(-c3ccc(C)cc3)nc2[P+](c2ccccc2)(c2ccccc2)c2ccccc2)cc1	0.359	1.33	0.595	1.87	0.154	0.846	0.312	1.12	0.365	1.37	0.375	1.47	0.378	1.98	0.31	1.64		
C#C[C@H]1CCCCCC1O (some centres undefined)		> 100		> 100		> 100		> 100				> 100				> 100	> 100	> 100
CSCCCNC(=O)c1csc(-c2csc(CCNC(=O)CNC(=O)CNC(=O)CNC(=O)OC(C)(C)C)n2)n1		> 100		> 100		> 100		> 100		> 100		> 100		> 100		> 100		
CCN(C(=O)CN1CCN(c2cc3c(cc2F)c(=O)c(C(=O)O)cn3CC)CC1)c1nc(-c2ccccc2)cs1	0.475	> 100	0.59	> 100	0.32	> 100	0.394	> 100	0.344	> 100	0.451	> 100	0.842	> 100	0.427	> 100		
O=C1CCC(N2C(=O)c3cccc(NCCCC4CCN(CCNC(=O)c5cc6c(o5)C(=O)c5ccccc5C6=O)CC4)c3C2=O)C(=O)N1 (centres undefined)	0.218	0.761	1.88	4.57	1.53	2.88	0.249	0.609	0.636	2.15	0.673	1.97	1.95	6.9	2.27	> 71.6		
COC(=O)/C(C#N)=C1\CCc2ccccc21		> 100		> 100		> 100		> 100				> 100				> 100		> 100
COc1ccc(-c2onc(-c3c(C)cc(C)cc3C)c2C2=NCCN2)cc1				48.2		> 100		> 100				> 100				> 100	> 100	> 100
O=C(NCC(=O)N1CCOC1=O)OCc1ccccc1		> 100		> 100		> 100		> 100				> 100				> 100	> 100	
COC(=O)C#CCC1CCCC1C1SCCS1 (centres undefined)		> 100		> 100		> 100						> 100				72.3	> 100	> 100
CC1C2CC(C/C2=N/O)C1(C)C (centres undefined)		> 100		> 100		> 100		> 100		> 100		> 100		> 100		> 100		
CC1=C(Cl)C[C@@H](/C(C)=C\Cl)O[C@@]1(O)C(Br)Br		31.3		> 100		> 100		> 100		79.6		> 100		> 100		57.5		
CC1=NN(C(=O)c2ccc(Cl)cc2)C(=O)/C1=C/c1ccc(Cl)cc1		> 100		> 100				> 100				> 100				> 100	> 100	> 100
N#CC(C#N)=C(N)/C(C#N)=C/c1ccc2[nH]ccc2c1		> 100		> 100		> 100		> 100		> 100		> 100		> 100		> 100	> 100	
C=C1C(=O)O[C@H]2[C@H]1CC/C(CNC(=O)/C=C/c1ccccc1)=C\CC[C@@]1(C)O[C@@H]21	0.558	1.83	1.48	4.18	1.67	4.74	2.18	5.05	1.46	3.47	2.39	10.9	4.21	37	0.342	1.3		
